Assay results reported in ChEMBL document CHEMBL4196016, “Regioselective synthesis of 7-O-esters of the flavonolignan silibinin and SARs lead to compounds with overadditive neuroprotective effects” (Eur J Med Chem, 2018).
Activity calls are given as the source filed them. No cut-off for these calls is given here.

Legend:
HT-22 [1] = test: Neuroprotective activity against glutamate-induced mouse HT22 cells assessed as increase in cell survival at 25 uM cotreated with glutamate measured after 24 hrs by MTT assay; format: functional, cell-based
[2] = Antioxidant activity assessed as reduction of Fe3+-TPTZ to Fe2+-TPTZ measured every 15 secs for 4 mins by FRAP assay; format: functional
HT-22 [3] = test: Neuroprotective activity against glutamate-induced mouse HT22 cells assessed as cell survival at 25 uM cotreated with glutamate measured after 24 hrs by MTT assay relative to control; format: functional
[4] = molecular target: T1, Amyloid-beta precursor protein (Homo sapiens, UniProt P05067); test: Inhibition of amyloid beta 42 (unknown origin) expressed in Escherichia coli BL21 (DE3) aggregation at 10 uM incubated for overnight by Th-S fluorescence staining based UV-Vis spectrophotometer (reference value: 0 +/- 1%)
T1 sequence (P05067 whole entry): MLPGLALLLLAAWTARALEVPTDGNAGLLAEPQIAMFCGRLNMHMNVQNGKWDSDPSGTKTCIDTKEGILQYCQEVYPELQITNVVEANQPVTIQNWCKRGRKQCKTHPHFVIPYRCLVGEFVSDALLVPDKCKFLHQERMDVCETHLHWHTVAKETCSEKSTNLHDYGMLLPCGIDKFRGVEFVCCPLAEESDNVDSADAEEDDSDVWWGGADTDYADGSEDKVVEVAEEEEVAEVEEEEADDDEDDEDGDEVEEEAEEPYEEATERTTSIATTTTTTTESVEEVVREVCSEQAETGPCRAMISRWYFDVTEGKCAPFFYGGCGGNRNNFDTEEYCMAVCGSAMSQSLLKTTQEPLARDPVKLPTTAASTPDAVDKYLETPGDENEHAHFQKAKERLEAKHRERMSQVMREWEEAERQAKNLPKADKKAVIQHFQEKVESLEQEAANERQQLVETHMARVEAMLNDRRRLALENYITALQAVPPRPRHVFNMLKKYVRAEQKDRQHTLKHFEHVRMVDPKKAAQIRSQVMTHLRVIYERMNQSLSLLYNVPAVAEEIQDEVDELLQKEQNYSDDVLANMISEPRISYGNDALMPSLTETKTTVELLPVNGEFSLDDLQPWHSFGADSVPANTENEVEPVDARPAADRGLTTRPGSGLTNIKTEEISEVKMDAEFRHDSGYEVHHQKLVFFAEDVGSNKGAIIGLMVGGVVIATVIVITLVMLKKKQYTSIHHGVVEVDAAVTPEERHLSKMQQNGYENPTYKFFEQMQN

[5] = molecular target: T2, Microtubule-associated protein tau (Homo sapiens, UniProt P10636); test: Inhibition of tau (unknown origin) aggregation expressed in Escherichia coli (DE3) at 100 uM incubated for overnight by Th-S fluorescence staining based UV-Vis spectrophotometer (reference value: 0.0 +/- 2.4%)
T2 sequence (P10636 whole entry): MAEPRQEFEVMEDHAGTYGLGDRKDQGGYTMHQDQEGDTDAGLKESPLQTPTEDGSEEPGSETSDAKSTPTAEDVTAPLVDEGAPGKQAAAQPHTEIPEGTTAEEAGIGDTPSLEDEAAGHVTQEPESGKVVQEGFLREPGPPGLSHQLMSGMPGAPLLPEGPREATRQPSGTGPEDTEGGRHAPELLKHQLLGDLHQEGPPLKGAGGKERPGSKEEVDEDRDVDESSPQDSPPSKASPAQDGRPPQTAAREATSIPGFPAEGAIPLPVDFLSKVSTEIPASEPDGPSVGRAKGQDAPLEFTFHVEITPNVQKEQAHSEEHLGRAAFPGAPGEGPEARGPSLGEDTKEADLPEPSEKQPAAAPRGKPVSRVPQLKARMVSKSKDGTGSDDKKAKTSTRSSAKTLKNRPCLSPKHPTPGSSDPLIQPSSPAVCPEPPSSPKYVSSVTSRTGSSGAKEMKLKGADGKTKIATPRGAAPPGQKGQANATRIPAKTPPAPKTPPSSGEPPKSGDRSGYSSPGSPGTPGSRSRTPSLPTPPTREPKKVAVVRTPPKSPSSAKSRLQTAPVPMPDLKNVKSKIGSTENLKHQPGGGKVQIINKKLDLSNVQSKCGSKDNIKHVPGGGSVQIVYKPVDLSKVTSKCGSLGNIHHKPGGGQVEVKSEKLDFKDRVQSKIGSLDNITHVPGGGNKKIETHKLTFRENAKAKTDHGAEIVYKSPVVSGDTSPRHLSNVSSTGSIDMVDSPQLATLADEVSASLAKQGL

[6] = Metabolic stability of the compound in human pooled plasma assessed as compound remaining at 50 uM after 4 hrs by LCMS analysis; format: ADME, cell-free; settings: read-out: Stability
[7] = Drug metabolism in human pooled plasma assessed as cleavage of ester bond at 50 uM up to 24 hrs by LCMS analysis; format: ADME, cell-free
[8] = molecular target: T2, Microtubule-associated protein tau; test: Inhibition of tau (unknown origin) aggregation expressed in Escherichia coli (DE3) at 10 uM incubated for overnight by Th-S fluorescence staining based UV-Vis spectrophotometer (reference value: 0.0 +/- 1.4%)
HT-22 [9] = test: Neuroprotective activity against glutamate-induced mouse HT22 cells assessed as cell survival at 10 to 25 uM cotreated with glutamate measured after 24 hrs by MTT assay relative to control; format: functional
[10] = molecular target: T1, Amyloid-beta precursor protein; test: Inhibition of amyloid beta 42 (unknown origin) expressed in Escherichia coli BL21 (DE3) aggregation at 100 uM incubated for overnight by Th-S fluorescence staining based UV-Vis spectrophotometer (reference value: 0 +/- 4.4%)
[11] = Half life in human pooled plasma at 50 uM up to 24 hrs by LCMS analysis; format: ADME, cell-free
BV-2 = test: Antiinflammatory activity in mouse BV2 cells assessed as inhibition of LPS-induced microglial activation after 24 hrs by Griess reagent based assay; format: functional, cell-based; settings: BV-2, 24 h
HT-22 [12] = test: Neurotoxicity against mouse HT22 cells assessed as decrease in cell viability at 25 uM measured after 24 hrs by MTT assay; format: toxicity, cell-based; settings: ht-22, 24 h
HT-22 [13] = test: Neuroprotective activity against IAA-induced ischemia in mouse HT22 cells assessed as increase in cell viability cotreated with IAA for 2 hrs followed by IAA wash out measured after 24 hrs by MTT assay; format: functional, cell-based
[14] = Metabolic stability of the compound in human pooled plasma at 50 uM by LCMS analysis; format: ADME, cell-free; settings: TDE = time-dependent effect
[15] = Stability of the compound in assay medium at 50 uM after 24 hrs by LCMS analysis; format: physicochemical; settings: read-out: Stability
[16] = Stability of the compound in assay medium at 50 uM by LCMS analysis; format: physicochemical; settings: TDE = time-dependent effect
[17] = Drug metabolism in human pooled plasma assessed as 7-Oferuloyl-2,3-dehydrosilibinin formation at 50 uM up to 24 hrs by LCMS analysis; format: ADME, cell-free
PC-12 = test: Induction of rat PC12 cells differentiation assessed as neurite outgrowth at 10 uM after 24 hrs relative to control; format: functional
HT-22 [18] = test: Neuroprotective activity against glutamate-induced mouse HT22 cells assessed as increase in cell survival at 10 uM cotreated with glutamate measured after 24 hrs by MTT assay; format: functional, cell-based
[19] = molecular target: T1, Amyloid-beta precursor protein; test: Inhibition of amyloid beta 42 (unknown origin) expressed in Escherichia coli BL21 (DE3) aggregation incubated for overnight by Th-S fluorescence staining based UV-Vis spectrophotometer
[20] = molecular target: T2, Microtubule-associated protein tau; test: Inhibition of tau (unknown origin) aggregation expressed in Escherichia coli (DE3) incubated for overnight by Th-S fluorescence staining based UV-Vis spectrophotometer
HT-22 [21] = test: Neurotoxicity against mouse HT22 cells assessed as decrease in cell viability at 10 uM measured after 24 hrs by MTT assay; format: toxicity, cell-based; settings: ht-22, 24 h
[22] = Antioxidant activity assessed as reduction of Fe3+-TPTZ to Fe2+-TPTZ using equimolar mixture of test compound and silibinin measured every 15 secs for 4 mins by FRAP assay; format: functional
HT-22 [23] = test: Neurotoxicity against mouse HT22 cells assessed as decrease in cell viability at 25 uM using 1:1 test compound to silibinin ratio measured after 24 hrs by MTT assay; format: toxicity, cell-based; settings: ht-22, 24 h
HT-22 [24] = test: Neuroprotective activity against glutamate-induced mouse HT22 cells assessed as increase in cell survival at 25 to 50 uM cotreated with glutamate measured after 24 hrs by MTT assay; format: functional, cell-based
HT-22 [25] = test: Neuroprotective activity against glutamate-induced mouse HT22 cells assessed as increase in cell survival at 5 to 25 uM cotreated with glutamate measured after 24 hrs by MTT assay; format: functional, cell-based
[26] = Antioxidant activity assessed as ferric ion reduction by measuring FeSO4 equivalents reducing Fe3+-TPTZ to Fe2+-TPTZ measured every 15 secs for 4 mins by FRAP assay; format: functional

SMILES	Activity (HT-22 [1])	Activity [2]	inhibition [4]	inhibition [5]	inhibition [8]	inhibition [10]	EC50 (BV-2)	EC50 (HT-22 [13])	Activity (PC-12)	Activity (HT-22 [18])	other results
COc1cc(C(=O)Oc2cc(O)c3c(c2)O[C@H](c2ccc4c(c2)OC(c2ccc(O)c(OC)c2)C(CO)O4)[C@@H](O)C3=O)ccc1O (stereo partly drawn)	Active	Active	–	–	–	–	–	–	–	–	–
O=c1c(O)c(-c2ccc(O)c(O)c2)oc2cc(O)cc(O)c12 [QUERCETIN]	–	–	–	–	–	–	–	–	–	–	Survival (HT-22 [3]): 80%
COc1cc(/C=C/C(=O)Oc2cc(O)c3c(c2)O[C@H](c2ccc4c(c2)OC(c2ccc(O)c(OC)c2)C(CO)O4)[C@@H](O)C3=O)ccc1O (stereo partly drawn)	–	Active	16.8%	64.7%	30.4%	54.4%	6.5 µM	> 10 µM	47%	–	remaining at 4 h, 50 µM [6]: 20%; Drug metabolism [7]: Metabolite_Detected; Survival (HT-22 [9]): 50%; half-life at 50 µM [11]: 1.5 h; Activity (HT-22 [12]): Toxic; Stability [14]: Tde; remaining at 24 h, 50 µM [15]: 25%; Stability [16]: Tde; Drug metabolism [17]: Metabolite_Notdetected
COc1cc(/C=C/C(=O)Oc2cc(O)c3c(c2)O[C@H](c2ccc4c(c2)O[C@@H](c2ccc(O)c(OC)c2)[C@H](CO)O4)[C@@H](O)C3=O)ccc1O	–	Active	14.2%	84%	44.5%	73%	10.1 µM	2.2 µM	67%	Active	IC50 [19]: 43.6 µM; IC50 [20]: 12.9 µM; Activity (HT-22 [21]): Toxic
O=C(O)/C=C/c1ccccc1 [CINNAMIC ACID]	–	inactive	–	–	–	–	> 10 µM	> 10 µM	inactive	–	Activity [22]: Active; Activity (HT-22 [23]): Toxic
COc1cc(C2Oc3cc([C@H]4Oc5cc(OC(=O)/C=C/c6ccccc6)cc(O)c5C(=O)[C@@H]4O)ccc3OC2CO)ccc1O (stereo partly drawn)	inactive	inactive	17.1%	76.1%	37.1%	61.1%	4.2 µM	1.5 µM	40%	Active	Activity (HT-22 [12]): Non-Toxic; Activity (HT-22 [24]): Active; Activity (HT-22 [25]): Active
COc1cc(C2Oc3cc([C@H]4Oc5cc(O)cc(O)c5C(=O)[C@@H]4O)ccc3OC2COC(=O)/C=C/c2ccccc2)ccc1O (stereo partly drawn)	Active	–	–	–	–	–	–	–	–	inactive	–
COc1cc(C2Oc3cc([C@H]4Oc5cc(OC(=O)/C=C/c6cc(OC)c(O)c(OC)c6)cc(O)c5C(=O)[C@@H]4O)ccc3OC2CO)ccc1O (stereo partly drawn)	–	Active	–	–	–	–	–	–	–	–	Activity (HT-22 [24]): Active
COc1cc(C2Oc3cc([C@H]4Oc5cc(OC(=O)c6ccccc6)cc(O)c5C(=O)[C@@H]4O)ccc3OC2CO)ccc1O (stereo partly drawn)	inactive	inactive	–	–	–	–	–	–	–	–	–
Cc1c(C)c2c(c(C)c1O)CCC(C)(C(=O)O)O2 (stereo not drawn)	–	–	–	–	–	–	–	–	–	–	Activity [26]: 1.8 equiv
